Experimental findings from US20260071252A1, “REVERSIBLE NANOPARTICLE AGGREGATES AND METHODS FOR DETECTING PROTEASES” (The Regents of the University of California, priority 2022, published 2026) are described below.

“Also recorded” adds a separate entry of the source. Where no end group is shown, it is not given here.

Assay [1] can be described thus: Peptide-enabled dissociation of RRK-induced AuNP aggregates. Particulars: for particle dissociation: RRK-induced AuNP aggregates; for dissociation of aggregated AuNPs in diverse matrixes: 100% human saliva, plasma, urine, and seawater; for concentration that dissociates AuNP aggregates: Gly spacer length. On the procedure: After inducing AuNP aggregates by the RRK peptides, the A1 peptides with different concentrations from 7 to 300 μM were used to dissociate AuNP aggregates. The plasmonic resonance peak of AuNP aggregates blue shifted to 520 nm after particle dissociation. (FIG. 37b). The hydrodynamic diameter of AuNP aggregates (greater than (>) 1 μm) was reduced to 27±0.07 nm, and the surface charge of AuNPs was—13.4±1.03 mV because of surface modification with neutral charged A1 peptides (150 μM) and residual citrates (FIG. 37c). Particle dissociation induced color change from blue to red and a decrease in size as confirmed by time-dependent photographs, multi-laser wavelength nanoparticle tracking analysis (M-NTA), and TEM (FIG. 37d-e and FIG. 45A-C).
To further study the role of each amino acid in the A1 peptide, we synthesized eight peptide sequences (from A2 to A8) for control experiments (FIG. 46A-H). Table 1 includes peptide sequence, net charge, critical dissociation concentrations (CDC), and design rationale. First, we replaced Cys residue with Gly (i.e., A2) to confirm the role of the anchoring group. […] Second, we hypothesized that negatively charged EE residues were required for particle dissociation because they provide electrostatic repulsions for citrate-coated AuNPs.
Briefly, 10 μM of RRK peptide was used to aggregate 100 μL of AuNPs (conc approximately 3.6 nM). The particle aggregation rapidly occurred (less than 10 s), changing color from red to blue. Then the desired dissociation peptides were used to dissociate the AuNP aggregates. It is notable that these exemplary AuNPs are stabilized by citrate. Different surface ligands (for example, BSPP) and different sizes (40 or 60 nm) require different amounts of RRK peptide for particle aggregation.
Briefly, RRK peptides (8-10 μM) was first used to trigger AuNP aggregation in distilled water. The sample was centrifuged at […] for 5 min to remove the supernatant. Then, the pellet was re-dispersed in 100% human saliva, plasma, urine, and seawater. After re-dispersion, the desired amounts of dissociation peptide were used to dissociate AuNPs aggregates in different matrixes. […] The experiment was performed with three replicates, and the microplate reader was used to measure spectral scanning from 300 to 900 nm before and after dissociation. The ratiometric signal (λ520/λ700) was referred as dissociation. The data was blanked to remove background signal.

Assay [2] addresses SARS-CoV-2 main protease (Mpro) (Severe acute respiratory syndrome coronavirus 2, UniProt P0DTD1).
The nature of assay [3]: Dissociation of Arg-Arg-AuNPs assemblies with HS-PEGs (UV-Vis percentage of dissociation, MANTA size). As to conditions: for dissociation of Arg-Arg-AuNPs assemblies: anchoring group / non-PEG ligand controls, up to >100 μM. The text has this: Dissociation of the AuNPs assemblies. […] HS-PEG6-OCH3 was chosen because its grafting on AuNPs ensure a high colloidal stability of these latter. Indeed, the grafting of thiolated PEGs has been widely reported in the literature via the formation of a strong Au—S bond conferring to the particles a high colloidal stability due to a combination of hydrophilicity and steric hindrance.^30-32 The Au—S bond being stronger than the arginine-citrate, arginine-gold or even citrate-gold interactions, […] was expected to be capable of progressively replacing the arginine/citrate layers at the gold surface, disrupting the electrostatic network, and eventually dispersing the AuNPs (Scheme 1). Briefly, aqueous suspensions Arg-Arg-AuNPs assemblies were exposed to increasing concentrations of HS-PEG6-OCH3, and the dissociation of the assemblies was characterized by TEM, MANTA, FTIR and UV-Vis spectroscopies (FIG. 2).
The presence of a PEG layer around the AuNPs explains the difference in the hydrodynamic diameter versus the initial AuNPs-citrate (48±32 nm vs 40±25 nm). Remarkably, the LSPR band of the dissociated AuNPs was identical to the AuNPs-citrate: The color of the sample returned to its initial bright red color. […] For the remainder of this study, the efficiency of the dissociation will be characterized by the percentage of dissociation (%) as measured by UV-Vis spectroscopy (comparison between the LSPR band after dissociation versus that from AuNPs-citrate). See the experimental section in the supporting information for more details. […] This finding is particularly interesting because the typical grafting density of HS-PEG6-OCH3 on dispersed AuNPs is reported to be between 3.5 and 4 HS-PEG6-OCH3/nm^2.^33 This implies that no excess of HS-PEGs was needed to dissociate the entire assembly-only enough to cover all the gold surface. It is worth noting that the kinetics of the dissociation was almost instantaneous (equilibrium reached within a minute) (FIG. 14). A video of the dissociation of the AuNPs assemblies is available online.
Dissociation. Stock solutions of the different HS-PEGs with concentrations ranging from 10 μM to 1 mM were prepared. Specific volumes of each solution were added to a 96-well plate in order to reach the desired final HS-PEGs concentration and then 100 μL of Arg-Arg-AuNPs were added. For complex matrices experiments, the Arg-Arg-AuNPs were first concentrated 10 times by centrifugation and then dispersed in complex media (sea water, pooled human saliva, plasma, urine, bile or HEK cell lysates) that represented thus 90% of the total volume except for bile, which was only 20%. Quickly after the addition of AuNPs, the dissociation of the assembly was monitored and the ratio of the absorbances at 520 nm and 700 nm was recorded over time. The percentage of dissociation is described as follows:
(§1) The optical absorption measurements were collected using a hybrid multi-mode microplate reader (Synergy™ H1 model, BioTek Instruments, Inc.) in a 96-well plate. The dissociation of assembly was characterized by measuring the ratio of the absorbance at 520 nm or 530 nm and 700 nm or 820 nm for 20 nm NPs or 40 nm NPs, respectively.
The multispectral advanced nanoparticle tracking analysis (MANTA) is a technique that builds images from the particles' light scattering via three lasers of different wavelengths (for example, blue, green, and red); the wavelength of scattering depends on nanoparticle size. Thus, small particles (less than, or <, 100 nm) appear blue while larger particles appear greener or redder. MANTA uses these images to count the nanoparticles and calculate their size based on Brownian motion. […] 3000™ (Horiba Scientific, USA). The temperature was set to 25° C. during the measurement. Automated noise analysis determines the optimal wavelength for representing each nanoparticle. Here, 8-bit composite videos were generated, and 10 videos were used per analysis (300 frames for seconds).

The nature of assay [4]: Peptide-induced (Arg-Arg) assembly of AuNPs-citrate, TEM/MANTA/UV-Vis.
From the text: Formation of AuNP assemblies. In this study, we investigated the possibility of forming convenient and reversible AuNPs assemblies using only elementary 15 nm AuNPs-citrate suspended in water and short peptides without the need for a complex surface modification. Peptides were used because they are relatively bulky and thus their steric prevented the particles from entering a permanent aggregated state. Arginine in particular can strongly interact with citrate anions via electrostatic interactions. A dipeptide containing two repetitions of arginine (Arg-Arg or RR) was thus used to interact with multiple particles at the same time and induce assembly.
Multispectral advanced nanoparticles tracking analysis (MANTA) was then used to confirm the size increase: The initial blue scattering corresponding to a hydrodynamic diameter of 40±25 nm (FIG. 1C) transformed immediately into red scattering corresponding to a hydrodynamic diameter of approximately 467±120 nm (FIG. 1D). Importantly, the count of particles decreased by more than 90%—from 2.5×10^5/mL to 2×10^4/mL, thus confirming that the vast majority of the AuNPs-citrate were aggregated. TEM images at different magnifications are seen in the supporting information (FIG. 10 and FIG. 11).
AuNPs Assembly and Dissociation Assembly. Typically, 1 mL of AuNPs-citrate at OD=1.5 was mixed with 50 μL of Arg-Arg (100 μM) to provoke the AuNPs assembly. The color of the suspensions rapidly changed from red to blue. The assembled AuNPs (Arg-Arg-AuNPs) were stable over time when stored at 4° C. and could be used for dissociation even month after their assembly.
as §1
The multispectral advanced nanoparticle tracking analysis (MANTA) is a technique that builds images from the particles' light scattering via three lasers of different wavelengths (for example, blue, green, and red); the wavelength of scattering depends on nanoparticle size. Thus, small particles (less than, or <, 100 nm) appear blue while larger particles appear greener or redder. MANTA uses these images to count the nanoparticles and calculate their size based on Brownian motion. MANTA was performed with the VIEWSIZER 3000™ (Horiba Scientific, USA). The temperature was set to 25° C. during the measurement. Automated noise analysis determines the optimal wavelength for representing each nanoparticle. Here, 8-bit composite videos were generated, and 10 videos were used per analysis (300 frames for seconds). A quartz cuvette with minimum volume of 1 mL was used for the measurement and the AuNPs concentrations was set up at 0.04 nM.

Where [5] appears, read: critical dissociation concentration, X (no dissociation).

On to “Ace-EEKKGGCAVLQ-Am (Ac-EEKKGGCAVLQ-NH2) [Peptide A17]”, for which the particle dissociation result in assay [1] is given as “failed to dissociate AuNP aggregates; also recorded: decreased the dissociation capacity”.
Same read-out and setting: with “NH2-EEKKPPC-Am (H-EEKKPPC-NH2) [Peptide A3]” the entry was “no particle dissociations”.
On to “Ace-EEPPKKC-Am (Ac-EEPPKKC-NH2) [Peptide A5]”, for which the “dissociation capacity lower than A1 peptide” value in assay [1] turned out to be 50%. Also, the “CDC” value in assay [1] (setting [5]) is >300 µM.
For the molecule Ace-CGGKKEEAVLQ-Am [Peptide A15], the particle dissociation result in assay [1] is given as “higher dissociation capacity than the A14 peptide; also recorded: dissociated AuNP aggregates”.
With SGFR, the “impact of released fragment on the dissociation process” value in assay [2] was “negligible impact on the dissociation process”.
Consider “Ace-EEKKGGC-Am (Ac-EEKKGGC-NH2) [Peptide A11]”, for which, in assay [1], the “dissociation of aggregated AuNPs in diverse matrixes” value is “successfully dissociated the aggregated AuNPs in diverse matrixes”, the “concentration that dissociates AuNP aggregates” value was 16 µM and the particle dissociation result is reported as “highest dissociation capacity compared to other spacers”. The molecule also showed a CDC in assay [1] (spacer comparison PP, AA, GG) of 16 µM.
As to `O=C(O)CCOCCOCCOCCOCCOCCOCCOCCOCCOCCOCCOCCOCCS` [HS-PEG12-COOH, HS—(CH2CH2O)12—CH2CH2COOH], the assemblies dissociated in assay [3] (from concentrations of 10 μM) worked out at 100%.
With Arg-Arg, in assay [4] (MANTA, from 2.5×10^5/mL to 2×10^4/mL after Arg-Arg), the “decrease of the count of particles” value is given as “more than 90%”. Also, the “Arg-Arg-induced aggregation of AuNPs-citrate in complex media” value in assay [4] (biological fluids, high concentrations of Arg-Arg (>200 μM)) is recorded as “could not induce the AuNPs-citrate aggregation in biological fluids”. Besides, the “hydrodynamic diameter (MANTA) after addition of di-arginine peptide” value in assay [4] (excess (10^4 equiv.), 10 μM Arg-Arg, 10 minutes, initial AuNPs-citrate 40±25 nm) was “approximately 467±120 nm”.
“Arg-Gly-Gly-Gly-Arg (RGGGR-NH2) [reference compound]”: the “affinity for the AuNPs-citrate compared to Arg-Arg (RR)” value in assay [4] (FIG. 1F) was “higher affinity for the particles than RR”.
On to `O=C(O)CCS` [MPA, 3-mercaptopropionic acid, reference compound], for which the “dissociation of Arg-Arg-AuNPs assemblies” value in assay [3] is “none could dissociate the aggregates”.
For the molecule “Ace-EEKKGGGGGGC-Am (Ac-EEKKGGGGGGC-NH2) [Peptide A13]”, in assay [1] (same peptide concentration (30 μM)), the “dissociation capacity lower than the A12 peptides” value stood at 25%.
In assay [1] (spacer comparison PP, AA, GG), Ace-EEKKAAC-Am [Peptide A10] had a CDC of 150 µM.
Take “Ace-KEEKKPPC-Am (Ac-KEEKKPPC-NH2) [Peptide A4]”: the particle dissociation entry in assay [1] is reported as “no particle dissociations”.
Regarding Ace-EEPPC-Am [Peptide A7], the “CDC” value in assay [1] (setting [5]) was >300 µM. Besides, in assay [1] (relative to A1 peptide), the “decreased to % of the dissociation capacity” value is reported as 30%.
For “Ace-KKEEPPC-Am (Ac-KKEEPPC-NH2) [Peptide A6]”, the particle dissociation result in assay [1] was “particle dissociation was quenched”.
For the molecule Ace-CGGKKEEAVLQSGF-Am [Peptide A19], the “peptide concentration causing non-desired particle dissociation” value in assay [2] is given as “over 50 μM”.
Regarding `O=C(O)c1ccc(S)cc1` [MBA, 4-mercaptobenzoic acid, reference compound], the “dissociation of Arg-Arg-AuNPs assemblies” value in assay [3] is recorded as “none could dissociate the aggregates”.
Take “Ace-EEKKGGGGC-Am (Ac-EEKKGGGGC-NH2) [Peptide A12]”: in assay [1], the “dissociation of aggregated AuNPs in diverse matrixes” value is recorded as “successfully dissociated the aggregated AuNPs in diverse matrixes” and the “concentration that dissociates AuNP aggregates” value was found to be 16 µM.
For “Ace-EEKKPPG-Am (Ac-EEKKPPG-NH2) [Peptide A2]”, the particle dissociation result in assay [1] is “failed to dissociate AuNP aggregates”.
